Results on one molecule are retold here after article PMC12084297, “Cytoplasmic connexin43-microtubule interactions promote glioblastoma stem-like cell maintenance and tumorigenicity” (Cell Death & Disease, 2025).

One test concerns VTC-001 GSCs. The test is described as follows: MTS viability, VTC-001 GSCs. It counts as cell-based, human. The following applies: VTC-001 adherent GSCs, TMZ 50 μM, 4 days. The procedure:
(§1) Cells were plated in 96-well plates (2000–5000 cells per well) and treated the following day with TMZ (10, 50, or 100 μM), antennapedia, JM2-scrambled, or JM2 (10, 50, or 100 μM). After 4 days, cell viability was monitored following addition of MTS reagent (Promega) according to manufacturer’s instructions. The absorbance at 490 nm was measured using a SpectraMax i3 or iD3 microplate reader (Molecular Devices). For the caspase 3/7 activity assay, cells were plated in 96-well plates (2000 cells per well) and treated with TMZ or peptides as described above. The activity of caspase 3/7 was measured after 48 h using the Caspase-Glo® 3/7 assay (Promega) following the manufacturer’s instructions. Fold change of caspase 3/7 activity was defined as the ratio of caspase 3/7 luminescence in treated cells compared to controls.

The test system of another test is VTC-037 GSCs. Put plainly: MTS viability, VTC-037 GSCs. It counts as cell-based, human. The following applies: VTC-037 adherent GSCs, TMZ 50 μM, 4 days. As to the method:
as §1

A further test relates to VTC-034 GSCs. Put plainly: Caspase 3/7 activity, VTC-034 GSCs. It counts as cell-based, human. The following applies: VTC-034 adherent GSCs, 10, 50 or 100 μM, 48 h, Caspase-Glo 3/7. The procedure: as §1
The test system of test [1] is newly diagnosed GBM patients. Particulars: surgical resection, radiotherapy, and chemotherapy with temozolomide, ref [1]-[3]; cited from earlier work. From the text: Glioblastoma (GBM) is a highly malignant and lethal cancer of the central nervous system. The current multimodal therapy for newly diagnosed GBM patients includes surgical resection, radiotherapy, and chemotherapy with temozolomide (TMZ), conferring a median survival of only 14.6 months, with recent results from phase 3 clinical trials showing an extension up to 20 months, although using more stringent inclusion criteria that limit generalizability.

Regarding `Cn1nnc2c(C(N)=O)ncn2c1=O` [TMZ, temozolomide, reference compound], the “GSC viability with TMZ alone (MTS)” value in the test on VTC-001 GSCs and in the test on VTC-037 GSCs was “resistant to TMZ treatment” each time. Also, the “Apoptosis induction (caspase 3/7 activity)” value in the test on VTC-034 GSCs was “inefficient in inducing apoptosis”. The Median survival in test [1] is listed as 14.6 months.
